Reference: patent publication US20080032340A1, “Peptide motifs for binding avidin or neutravidin” (University of Arizona, priority 2006, published 2008)
Where two headings read alike, the source gives them in different places. Where a SMILES comes first, the peptide text is derived from it. Bridges are numbered along the chain shown (N, C = ends).

Key:
avidin [1] = target: T1, avidin (Gallus gallus, UniProt P02701); conditions: pH of 7, literature value; read-out: Kd HABA-avidin; cited from earlier work
T1 sequence (P02701 25-152): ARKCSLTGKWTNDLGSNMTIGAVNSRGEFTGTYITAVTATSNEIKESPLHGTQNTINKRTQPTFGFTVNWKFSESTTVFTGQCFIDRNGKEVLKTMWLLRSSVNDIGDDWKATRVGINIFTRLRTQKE

NeutrAvidin [2] = target: T2, NeutrAvidin (Gallus gallus, UniProt P02701); assay: HABA saturation of NeutrAvidin; type: binding; conditions: calculated value, supplementary material; read-out: dissociation constant of the HABA-NeutrAvidin complex
T2 construct: purchased Pierce
T2 sequence (P02701 25-152): as above
Procedure: (§1) After 60 minutes, the absorbance of the complex was monitored at 500 nm. To calculate the IC50s of the selected peptides, the average of three separate trials were fitted to the Hill equation, [formula] where [L] is the total ligand concentration, [L]F is free ligand concentration, [L]B is bound ligand concentration and nH is the Hill coefficient (Hill, The possible effects of the aggregation of the molecules of haemoglobin on its dissociation curves. J Physiol 1910; 40:4-8). […] Best fit equations were calculated using KaleidaGraph (Synergy Software).

streptavidin = target: T3, streptavidin (Streptomyces avidinii, UniProt P22629); assay: HABA-competitive binding determination, streptavidin-HABA complex
T3 construct: purchased Pierce
T3 sequence (P22629 25-183): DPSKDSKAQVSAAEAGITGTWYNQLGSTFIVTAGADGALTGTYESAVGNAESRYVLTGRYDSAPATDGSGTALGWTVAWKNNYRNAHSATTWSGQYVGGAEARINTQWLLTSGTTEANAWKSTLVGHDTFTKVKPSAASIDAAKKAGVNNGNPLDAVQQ
Procedure: as §1

avidin [3] = target: T1, avidin; assay: HABA-competitive binding determination, avidin-HABA complex; parameters: purchased Pierce; species or system chicken; conditions: linear (uncyclized) peptides; read-out: dissociation constant, avidin, linear peptides
Procedure: as §1

NeutrAvidin [4] = target: T2, NeutrAvidin; assay: HABA-competitive binding determination, HABA-NeutrAvidin complex; conditions: linear (uncyclized) peptides; read-out: dissociation constant, Neutravidin, linear peptides
Procedure: as §1

NeutrAvidin [5] = target: T2, NeutrAvidin; assay: Phage-displayed cyclic peptide selection against NeutrAvidin (clone sequencing); type: binding
Procedure: XL1-Blue E. coli containing the phagemid library vector were grown from glycerol stocks in 5 mL of 2×YT media with glucose and ampicillin selection at 37° C. Titered M13KO7 helper phage (5×10^9 pfu) was added when the culture reached an OD600 of 0.8 and was incubated for 1 hour. The culture was then pelleted via centrifugation, the cells were resuspended in 2×YT with ampicillin and kanamycin, and allowed to grow overnight. After 10 hours of incubation, the culture was again pelleted by centrifugation and the supernatant was filtered through a 0.45 μm sterile filter to remove trace E. coli. The phage was isolated from the supernatant by PEG (polyethylene glycol) precipitation. 1 mL of 20% PEG in 2.5 M NaCl was added to the 5 mL of filtered media. The resulting precipitate was isolated by centrifugation at 18,000 rcf. The phage pellet was resuspended in 5 mL of Tris Buffer A (20 mM Tris-HCl, 150 mM NaCl, and 0.05% Tween 20 at pH=7.4). The phage was then re-precipitated with 1 mL PEG/NaCl, isolated via centrifugation, and resuspended in 1 mL of Tris Buffer A.
100 μL of the phage solution was then exposed to a well of a NeutrAvidin coated polystyrene plate (Pierce) that had been previously rinsed with Tris Buffer A. After 1 hour of incubation, the phage solution was discarded and the well was washed six times for 10 minutes each with 200 μL of Tris Buffer A. Bound phage was eluted with 200 μL of 0.2 M glycine (pH=2.0) by incubation for 10 minutes, followed by neutralization with 40 μL of 2 M Tris base. The input phage and eluted phage were then used to infect two 5 mL tetracycline-selected cultures of XL1 Blue E. coli (OD600=0.8). After 1 hour, the cells were pelleted and resuspended in 5 mL of 2×YT with ampicillin and glucose. […]
Phage display selection and synthesis of NeutrAvidin binding peptides. […] The library was expressed as a fusion to the gene III protein of M13 filamentous bacteriophage, C-terminal to the periplasmic signaling sequence and N-terminal to a peptide linker and the rest of the gene III protein (see supplementary material). […]

Molecule	Kd (streptavidin) [µM]	Kd (avidin [3]) [µM]	Kd (NeutrAvidin [4]) [µM]	also measured
O=C(O)c1ccccc1N=Nc1ccc(O)cc1 [HABA, 4′-hydroxyazobenzene-2-carboxylic acid]				Kd (avidin [1]): 7 µM; Kd (NeutrAvidin [2]): 15 µM
CC(C)C[C@@H]1NC(=O)[C@H](CC(=O)O)NC(=O)[C@@H](N)CSSC[C@@H](C(=O)NCC(N)=O)NC(=O)[C@H](Cc2c[nH]c3ccccc23)NC(=O)[C@@H]2CCCN2C(=O)[C@H](CO)NC(=O)[C@H](C)NC1=O [DLASPW] (H-CDLASPWCG-NH2; disulfide 1-8; N-terminus assumed)	> 5000			
C[C@@H]1NC(=O)[C@H](CCCNC(=N)N)NC(=O)[C@H](CC(=O)O)NC(=O)[C@@H](N)CSSC[C@@H](C(=O)NCC(N)=O)NC(=O)[C@H](Cc2ccc(O)cc2)NC(=O)[C@@H]2CCCN2C(=O)[C@H](CO)NC1=O [DRASPY] (H-CDRASPYCG-NH2; disulfide 1-8)	> 5000	< 500	< 500	
C[C@@H]1NC(=O)[C@H](CCCNC(=N)N)NC(=O)[C@H](CC(=O)O)NC(=O)[C@@H](N)CSSC[C@@H](C(=O)NCC(N)=O)NC(=O)[C@H](Cc2ccc(O)cc2)NC(=O)[C@@H]2CCCN2C(=O)[C@H]([C@@H](C)O)NC1=O [DRATPY] (H-CDRATPYCG-NH2; disulfide 1-8)	> 5000	< 500	< 500	
CDRASPWC [not synthesized]				% of clones, Round 3 (NeutrAvidin [5]; round 3, 15 clones sequenced): 20%; % of clones, Round 4 (NeutrAvidin [5]; round 4, 26 clones sequenced): 8%; % of clones, Round 5 (NeutrAvidin [5]; round 5, 40 clones sequenced): 5%
